Assay results: patent publication US6683095B2, “CDK inhibitors having 3-hydroxychromen-4-one structure” (LG Life Sciences Ltd., priority 2000, dated 2004)

Assays:
CDK2/cyclin A = molecular target: T1, CDK2/cyclin A (Homo sapiens, UniProt P24941); experiment: Inhibitory activity against CDK2 (CDK2/cyclin A kinase assay, GST-Rb substrate, 32P-ATP); type: biochemical; conditions: 100 μM ATP, 30° C., 30 minutes
T1 construct: His; made in house; host or cells: insect cell (baculovirus co-infection)
Experimental: The inhibitory activity against CDK2 was measured by referring to Kitagawa, M. et al., Oncogene 9; 2549, 1994 and that against CDK4 was measured by referring to Carlson, B. A. et al., Cancer Research 56; 2473, 1996.
The part of amino acid positions 780 to 928 of C-terminus of human Rb protein was isolated, N-terminus thereof was labelled with GST protein, large amount thereof was expressed in bacteria and purified to be used as the substrate for the enzyme.
(§1) The activities of CDK2/cyclin A and CDK4/cyclin D1 were determined as follows. About 100 ng of enzyme was reacted in a total 100 μl of 20 mM Tris(pH 8.0), 100 mM NaCl, 10 mM MgCl2 buffer solution containing 20 μg of GST-Rb protein, 100 μM of ATP and 5 μCi of p^32-γ-ATP at 30° C. for 30 minutes. Then, EDTA was added to a concentration of 20 mM to stop the enzyme reaction. Subsequently, 30 μl of 50% glutathione bead (purchased from Pharmacia) was added to attach GST-Rb to the bead, which was washed three times with 20 mM Tris(pH 8.0), 100 mM NaCl, 10 mM EDTA solution, and then scintillation counting was carried out. To analyze the inhibitory activity of the compound, the inhibitor having a proper concentration was added to the enzyme reaction solution, and then the enzyme activity was measured according to the above method.
The inhibitory activity against CDK2 and CDK4 of the compound of formula (1) according to the present invention was represented as IC50 value (see the following Table 1).

CDK4/cyclin D1 = molecular target: T2, CDK4/cyclin D1 (Homo sapiens, UniProt P11802); experiment: Inhibitory activity against CDK4 (CDK4/cyclin D1 kinase assay, GST-Rb substrate, 32P-ATP); type: biochemical; conditions: 100 μM ATP, 30° C., 30 minutes
T2 construct: GST; made in house; host or cells: insect cell
Experimental: as §1

T2 sequence (P11802 whole entry): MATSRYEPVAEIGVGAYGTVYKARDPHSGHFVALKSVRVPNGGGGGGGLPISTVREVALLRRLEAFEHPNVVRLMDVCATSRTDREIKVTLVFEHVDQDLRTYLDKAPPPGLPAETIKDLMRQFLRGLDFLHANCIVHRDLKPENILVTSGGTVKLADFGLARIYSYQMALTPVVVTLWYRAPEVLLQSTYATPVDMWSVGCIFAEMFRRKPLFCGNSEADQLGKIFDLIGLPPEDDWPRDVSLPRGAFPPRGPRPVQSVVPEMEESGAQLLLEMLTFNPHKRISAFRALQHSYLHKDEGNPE
T2 sequence (P24385 whole entry partner): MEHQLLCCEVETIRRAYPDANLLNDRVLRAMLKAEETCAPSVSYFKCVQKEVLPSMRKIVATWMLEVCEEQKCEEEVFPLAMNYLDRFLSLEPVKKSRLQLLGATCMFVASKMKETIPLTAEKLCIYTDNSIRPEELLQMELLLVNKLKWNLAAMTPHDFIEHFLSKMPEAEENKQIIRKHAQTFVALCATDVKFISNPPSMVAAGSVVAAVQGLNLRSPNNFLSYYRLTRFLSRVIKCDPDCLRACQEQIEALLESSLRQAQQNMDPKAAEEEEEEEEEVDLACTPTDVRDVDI

CNc1cc(N2CCCS2(=O)=O)c2oc(-c3ccc(O)cc3)c(O)c(=O)c2c1 [Compound 32, 2-[3-hydroxy-2-(4-hydroxyphenyl)-6-(methylamino)-4-oxo-4H-chromen-8-yl]-1λ^6-isothiazolidin-1,1-dione]
IC50 (CDK2/cyclin A): 0.224 µM | IC50 (CDK4/cyclin D1): 0.54 µM

Cc1cc(N)c2oc(-c3ccc(N)cc3)c(O)c(=O)c2c1 [Compound 11, 8-amino-2-(4-aminophenyl)-3-hydroxy-6-methyl-4H-chromen-4-one]
IC50 (CDK2/cyclin A): 150 µM | IC50 (CDK4/cyclin D1): 50 µM

Cc1cc(N2CCCS2(=O)=O)c2oc(-c3ccc(O)c(CO)c3)c(O)c(=O)c2c1 [Compound 23, 2-{3-hydroxy-2-[4-hydroxy-3-(hydroxymethyl)phenyl]-6-methyl-4-oxo-4H-chromen-8-yl}-1λ^6-isothiazolidin-1,1-dione]
IC50 (CDK2/cyclin A): 1.5 µM | IC50 (CDK4/cyclin D1): 5 µM

CC(=O)Nc1cc(C)cc2c(=O)c(O)c(-c3ccc(O)c(N)c3)oc12 [Compound 7B, N-[2-(3-amino-4-hydroxyphenyl)-3-hydroxy-6-methyl-4-oxo-4H-chromen-8-yl]acetamide]
IC50 (CDK2/cyclin A): 3 µM | IC50 (CDK4/cyclin D1): 17 µM

Cc1cc(-c2ccncc2)c2oc(-c3ccc(O)c(Cl)c3)c(O)c(=O)c2c1 [Compound 39, 2-(3-chloro-4-hydroxyphenyl)-3-hydroxy-6-methyl-8-(4-pyridinyl)-4H-chromen-4-one]
IC50 (CDK2/cyclin A): 0.13 µM | IC50 (CDK4/cyclin D1): 0.28 µM

O=c1c(O)c(-c2ccc(O)cc2)oc2c(N3CCCS3(=O)=O)cc(NCc3ccccc3)cc12 [Compound 28, 2-[6-(benzylamino)-3-hydroxy-2-(4-hydroxyphenyl)-4-oxo-4H-chromen-8-yl]-1λ^6-isothiazolidin-1,1-dione]
IC50 (CDK2/cyclin A): 2.24 µM | IC50 (CDK4/cyclin D1): 3.2 µM

Cc1cc(N)c2oc(-c3cccc(O)c3)c(O)c(=O)c2c1 [Compound 12, 8-amino-3-hydroxy-2-(3-hydroxyphenyl)-6-methyl-4H-chromen-4-one]
IC50 (CDK2/cyclin A): 2 µM | IC50 (CDK4/cyclin D1): 2.1 µM

Nc1cc(N2CCCS2(=O)=O)c2oc(-c3ccc(O)c(Cl)c3)c(O)c(=O)c2c1 [Compound 35, 2-[6-amino-2-(3-chloro-4-hydroxyphenyl)-3-hydroxy-4-oxo-4H-chromen-8-yl]-1λ^6-isothiazolidin-1,1-dione]
IC50 (CDK2/cyclin A): 0.07 µM | IC50 (CDK4/cyclin D1): 0.18 µM

Cc1cc(C2CCN(CCO)CC2)c2oc(-c3ccc(O)c(Cl)c3)c(O)c(=O)c2c1 [Compound 44, 2-(3-chloro-4-hydroxyphenyl)-3-hydroxy-8-[1-(2-hydroxyethyl)-4-piperidinyl]-6-methyl-4H-chromen-4-one]
IC50 (CDK2/cyclin A): < 1 µM | IC50 (CDK4/cyclin D1): < 1 µM

Cc1cc(N)c2oc(-c3ccc(O)c(N)c3)c(O)c(=O)c2c1 [Compound 1, 8-amino-2-(3-amino-4-hydroxyphenyl)-3-hydroxy-6-methyl-4H-chromen-4-one]
IC50 (CDK2/cyclin A): 1.4 µM | IC50 (CDK4/cyclin D1): 20 µM

Cc1cc(N2CCCS2(=O)=O)c2oc(-c3ccc(O)c(C#N)c3)c(O)c(=O)c2c1 [Compound 19, 5-[8-(1,1-dioxo-1λ^6-isothiazolidin-2-yl)-3-hydroxy-6-methyl-4-oxo-4H-chromen-2-yl]-2-hydroxybenzonitrile]
IC50 (CDK2/cyclin A): 1.4 µM | IC50 (CDK4/cyclin D1): 0.79 µM

CC(=O)Nc1cc(N2CCCS2(=O)=O)c2oc(-c3ccc(O)c(Cl)c3)c(O)c(=O)c2c1 [Compound 34, N-[2-(3-chloro-4-hydroxyphenyl)-8-(1,1dioxo-1λ^6-isothiazolidin-2-yl)-3-hydroxy-4-oxo-4H-chromen-6-yl]acetamide]
IC50 (CDK2/cyclin A): 1.3 µM | IC50 (CDK4/cyclin D1): 1.8 µM

Nc1cc(N2CCCS2(=O)=O)c2oc(-c3ccc(O)cc3)c(O)c(=O)c2c1 [Compound 25, 2-[6-amino-3-hydroxy-2-(4-hydroxyphenyl)-4-oxo-4H-chromen-8-yl]-1λ^6-isothiazolidin-1,1-dione]
IC50 (CDK2/cyclin A): 0.088 µM | IC50 (CDK4/cyclin D1): 1.2 µM

Cc1cc(N2CCCS2(=O)=O)c2oc(-c3ccc(O)c(C)c3)c(O)c(=O)c2c1 [Compound 22, 2-[3-hydroxy-2-(4-hydroxy-3-methylphenyl)-6-methyl-4-oxo-4H-chromen-8-yl]-1λ^6-isothiazolidin-1,1-dione]
IC50 (CDK2/cyclin A): 0.7 µM | IC50 (CDK4/cyclin D1): 2 µM

Cc1cc(N2CCCS2(=O)=O)c2oc(-c3ccc(F)c(Cl)c3)c(O)c(=O)c2c1 [Compound 21, 2-[2-(3-chloro-4-fluorophenyl)-3-hydroxy-6-methyl-4-oxo-4H-chromen-8-yl]-1λ^6-isothiazolidin-1,1-dione]
IC50 (CDK2/cyclin A): 13 µM | IC50 (CDK4/cyclin D1): 24 µM

CC(=O)Nc1cc(-c2oc3ccc(C)cc3c(=O)c2O)ccc1O [Compound 6, N-[2-hydroxy-5-(3-hydroxy-6-methyl-4-oxo-4H-chromen-2-yl)phenyl]acetamide]
IC50 (CDK2/cyclin A): 30 µM | IC50 (CDK4/cyclin D1): 10 µM

CC(=O)Nc1cc(C)cc2c(=O)c(O)c(-c3ccc(O)c(NC(C)C)c3)oc12 [Compound 7A, N-{2-[4-hydroxy-3-(isopropylamino)phenyl]-3-hydroxy-6-methyl-4-oxo-4H-chromen-8-yl}acetamide]
IC50 (CDK2/cyclin A): 18 µM | IC50 (CDK4/cyclin D1): 47 µM

Cc1cc(N)c2oc(-c3ccc(O)cc3)c(O)c(=O)c2c1 [Compound 4, 8-amino-2-(4-hydroxyphenyl)-3-hydroxy-6-methyl-4H-chromen-4-one]
IC50 (CDK2/cyclin A): 2.1 µM | IC50 (CDK4/cyclin D1): 2.1 µM

Cc1cc(C2CCN(C)CC2)c2oc(-c3ccc(O)c(C)c3)c(O)c(=O)c2c1 [Compound 42, 3-hydroxy-2-(4-hydroxy-3-methylphenyl)-6-methyl-8-(1-methyl-4-piperidinyl)-4H-chromen-4-one]
IC50 (CDK2/cyclin A): 0.178 µM | IC50 (CDK4/cyclin D1): 0.65 µM

Cc1cc(N2CCCS2(=O)=O)c2oc(-c3ccc(O)cc3O)c(O)c(=O)c2c1 [Compound 20, 2-[2-(2,4-dihydroxyphenyl)-3-hydroxy-6-methyl-4-oxo-4H-chromen-8-yl]-1λ^6-isothiazolidin-1,1-dione]
IC50 (CDK2/cyclin A): 1000 µM | IC50 (CDK4/cyclin D1): 500 µM

Cc1cc(N2CCCS2(=O)=O)c2oc(-c3ccc(O)c(F)c3)c(O)c(=O)c2c1 [Compound 16, 2-[2-(3-fluoro-4-hydroxyphenyl)-3-hydroxy-6-methyl-4-oxo-4H-chromen-8-yl]-1λ^6-isothiazolidin-1,1-dione]
IC50 (CDK2/cyclin A): 0.45 µM | IC50 (CDK4/cyclin D1): 1.1 µM

CN(C)c1cc(N2CCCS2(=O)=O)c2oc(-c3ccc(O)cc3)c(O)c(=O)c2c1 [Compound 26, 2-[6-(dimethylamino)-3-hydroxy-2-(4-hydroxyphenyl)-4-oxo-4H-chromen-8-y]-1λ^6-isothiazolidin-1,1-dione]
IC50 (CDK2/cyclin A): 0.22 µM | IC50 (CDK4/cyclin D1): 0.71 µM

Cc1cc(C2CCN(CCN)CC2)c2oc(-c3ccc(O)c(Cl)c3)c(O)c(=O)c2c1 [Compound 45, 8-[1-(2-aminoethyl)-4-piperidinyl]-2-(3-chloro-4-hydroxyphenyl)-3-hydroxy-6-methyl-4H-chromen-4-one]
IC50 (CDK2/cyclin A): < 1 µM | IC50 (CDK4/cyclin D1): < 1 µM

Cc1cc(N2CCCS2(=O)=O)c2oc(-c3ccc(O)c(C(F)(F)F)c3)c(O)c(=O)c2c1 [Compound 24, 2-[3-hydroxy-2-(4-hydroxy-3-trifluoromethylphenyl)-6-methyl-4-oxo-4H-chromen-8-yl]-1λ^6-isothiazolidin-1,1-dione]
IC50 (CDK2/cyclin A): 0.25 µM | IC50 (CDK4/cyclin D1): 2.1 µM

Cc1cc(N)c2oc(-c3ccc(O)c(F)c3)c(O)c(=O)c2c1 [Compound 9, 8-amino-2-(3-fluoro-4-hydroxyphenyl)-3-hydroxy-6-methyl-4H-chromen-4-one]
IC50 (CDK2/cyclin A): 14 µM | IC50 (CDK4/cyclin D1): 16 µM

Cc1cc(C2CCN(C)CC2)c2oc(-c3ccc(O)c(C(F)(F)F)c3)c(O)c(=O)c2c1 [Compound 43, 3-hydroxy-2-(4-hydroxy-3-trifluoromethylphenyl)-6-methyl-8-(1-methyl-4-piperidinyl)-4H-chromen-4-one]
IC50 (CDK2/cyclin A): 6.3 µM | IC50 (CDK4/cyclin D1): < 1 µM

CC(=O)Nc1cc(C)cc2c(=O)c(O)c(-c3ccc(O)c([N+](=O)[O-])c3)oc12 [Compound 3, N-[2-(4-hydroxy-3-nitrophenyl)-3-hydroxy-6-methyl-4-oxo-4H-chromen-8-yl]acetamide]
IC50 (CDK2/cyclin A): 6 µM | IC50 (CDK4/cyclin D1): 3.9 µM

CN(CCO)c1cc(N2CCCS2(=O)=O)c2oc(-c3ccc(O)cc3)c(O)c(=O)c2c1 [Compound 33, 2-{3-hydroxy-6-[(2-hydroxyethyl)(methyl)amino]-2-(4-hydroxyphenyl)-4-oxo-4H-chromen-8-yl}-1λ^6-isothiazolidin-1,1-dione]
IC50 (CDK2/cyclin A): 0.6 µM | IC50 (CDK4/cyclin D1): 0.9 µM

O=c1c(O)c(-c2ccc(O)cc2)oc2c(N3CCCS3(=O)=O)cc(NC3CCCCC3)cc12 [Compound 30, 2-[6-(cyclohexylamino)-3-hydroxy-2-(4-hydroxyphenyl)-4-oxo-4H-chromen-8-yl]-1λ^6-isothiazolidin-1,1-dione]
IC50 (CDK2/cyclin A): 5.6 µM | IC50 (CDK4/cyclin D1): 1.6 µM

Cc1ccc2oc(-c3ccc(O)c(O)c3O)c(O)c(=O)c2c1 [Compound 13, 3-hydroxy-6-methyl-2-(2,3,4-trihydroxyphenyl)-4H-chromen-4-one]
IC50 (CDK2/cyclin A): 1000 µM | IC50 (CDK4/cyclin D1): 50 µM

Cc1cc(NC(N)=O)c2oc(-c3ccc(O)c(NC(N)=O)c3)c(O)c(=O)c2c1 [Compound 10, N-{5-[8-(ureido)-3-hydroxy-6-methyl-4-oxo-4H-chromen-2-yl]-2-hydroxyphenyl}urea]
IC50 (CDK2/cyclin A): 30 µM | IC50 (CDK4/cyclin D1): 100 µM
